Experimental data: patent US20240217969A1, “SUBSTITUTED PYRROLE CARBOXAMIDES, PROCESS FOR THEIR PREPARATION AND THEIR USE AS KINASE INHIBITORS” (priority 2021, published 2024)

Key:
Cdc7 = Cdc7 (Homo sapiens, UniProt O00311); assay: Cdc7 biochemical assay, ADPGlo assay format
Experimental: The biochemical activity of compounds was determined by incubation with specific enzymes and substrate, followed by quantification of the ADP product. Compounds were 4-fold serially diluted from 10 to 0.0006 uM; in the case of the pre-incubation step, the enzyme is added to the inhibitor solution and the mixture is left to incubate for 30 minutes at room temperature (r.t.). The reaction started with the addition of the substrate and the ATP, when the enzyme was already present in the preincubation step, or substrate, ATP and enzyme when the preincubation step was not present. The concentrations of ATP, substrate and reaction buffer are described above. The assays were run in a robotized format on 384-well plates. […] At the end of the incubation time, an equal volume of ADPGlo Reagent 1 (Promega) was added to stop the reaction and to remove all unreacted ATP. After 60 minutes, an equal volume of ADPGlo Reagent 2 (Promega) was added to convert ADP in ATP and then ATP in light by luciferase reaction.
y=bottom+(top−bottom)/(1+10^((log IC50−x)*slope))
where x is the logarithm of the inhibitor concentration, y is the response; y starts at bottom and goes to top with a sigmoid shape.

[1] = molecular target: T1, aldehyde oxidases (human liver cytosol) (Homo sapiens, UniProt Q06278); assay type: in vitro ADME; conditions: human liver cytosol 1 mg/mL, 1 μM compound; for HLC % remaining (1 h incub.): 60 min incubation; for HLC % remaining (1 h incub.) / HLC T½ min: pH 7.4, 37° C.; for IntCl (Intrinsic Clearance): half-life approach
T1 construct: added to human liver cytosol (1 mg/mL protein content); from tissue; host or cells: human liver cytosol
T1 sequence (Q06278 whole entry): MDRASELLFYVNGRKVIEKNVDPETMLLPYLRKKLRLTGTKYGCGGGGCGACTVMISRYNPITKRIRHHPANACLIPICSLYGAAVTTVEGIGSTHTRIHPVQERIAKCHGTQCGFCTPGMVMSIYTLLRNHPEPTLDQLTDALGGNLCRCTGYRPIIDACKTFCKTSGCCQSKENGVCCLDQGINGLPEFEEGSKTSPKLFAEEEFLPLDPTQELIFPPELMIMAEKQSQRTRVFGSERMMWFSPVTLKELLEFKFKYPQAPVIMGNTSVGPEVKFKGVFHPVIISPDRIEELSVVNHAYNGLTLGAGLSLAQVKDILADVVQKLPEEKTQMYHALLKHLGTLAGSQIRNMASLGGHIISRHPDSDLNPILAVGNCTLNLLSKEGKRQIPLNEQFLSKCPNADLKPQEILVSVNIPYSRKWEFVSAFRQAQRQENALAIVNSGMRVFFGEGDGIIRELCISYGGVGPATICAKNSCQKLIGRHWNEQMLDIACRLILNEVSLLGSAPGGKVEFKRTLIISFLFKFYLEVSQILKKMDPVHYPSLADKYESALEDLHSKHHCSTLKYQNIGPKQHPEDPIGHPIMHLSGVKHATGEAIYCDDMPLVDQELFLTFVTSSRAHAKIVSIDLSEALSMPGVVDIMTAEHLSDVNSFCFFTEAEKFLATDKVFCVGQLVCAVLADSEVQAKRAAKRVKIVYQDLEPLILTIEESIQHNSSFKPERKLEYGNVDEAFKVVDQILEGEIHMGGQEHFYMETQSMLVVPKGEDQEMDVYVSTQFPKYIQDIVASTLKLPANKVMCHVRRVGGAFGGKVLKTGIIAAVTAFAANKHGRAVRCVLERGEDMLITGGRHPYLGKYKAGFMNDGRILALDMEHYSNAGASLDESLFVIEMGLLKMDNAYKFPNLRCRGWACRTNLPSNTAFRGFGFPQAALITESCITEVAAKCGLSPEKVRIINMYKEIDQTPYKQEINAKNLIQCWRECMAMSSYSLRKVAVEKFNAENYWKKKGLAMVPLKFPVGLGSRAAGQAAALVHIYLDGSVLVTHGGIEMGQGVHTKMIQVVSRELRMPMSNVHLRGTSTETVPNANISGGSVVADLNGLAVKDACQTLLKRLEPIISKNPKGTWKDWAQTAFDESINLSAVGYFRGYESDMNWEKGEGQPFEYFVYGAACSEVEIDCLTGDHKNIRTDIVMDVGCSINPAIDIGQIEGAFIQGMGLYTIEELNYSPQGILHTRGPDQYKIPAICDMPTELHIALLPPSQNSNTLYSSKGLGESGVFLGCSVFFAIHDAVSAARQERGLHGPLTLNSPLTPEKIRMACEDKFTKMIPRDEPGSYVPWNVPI
Experimental: The aldehyde oxidases involvement in the metabolism of the test item was determined by comparison of the intrinsic clearance values in the presence and absence of aldehyde oxidases inhibitor hydralazine hydrochloride. The purpose of the study was to evaluate the in-vitro intrinsic clearance, the metabolic stability towards aldehyde oxidases (AO) activity and the metabolism of the test item in human liver cytosol. The intrinsic clearance was determined using the half-life approach, by measuring the substrate disappearance along 60 minutes incubation with human liver cytosol. Incubations were performed at the concentration of 1 μM. […] HPLC-MS/MS was used for the detection of the compound left over during the incubation. For intrinsic clearance determination samples were analyzed by high performance liquid chromatography (HPLC) on-line with mass spectrometry (MS) equipment. For the determination of aldehyde oxidases activity (i.e. positive control) of cytosol, phthalazine was incubated with human liver cytosol in presence and absence of the aldehyde oxidases inhibitor. On the day of the incubation, the compound was dissolved in DMSO at the concentration of 10 mM. Aliquots of this solution were added to the test system to a final concentration of […]. The percentage of DMSO in the final incubates was […]. Aliquots of the test item were added to human liver cytosol (1 mg/mL protein content) in Dulbecco's buffer, pH 7.4 at 37° C., to reach final concentration of 1 μM. Incubations were performed in a 48-well plate, under shaking. At 0, 5, 10, 20, 30 and 60 minutes incubation, 50 μL aliquots of the incubate were sampled, poured in 80 μL of ice-cold acetonitrile and 20 μL of 1 μM warfarin in acetonitrile (injection control) and centrifuged at 2500 rpm for 20 minutes. The supernatant was immediately analysed by LC-MS/MS.
The test item was incubated in parallel, in duplicate, at the concentration of 1 μM in Dulbecco's buffer, pH 7.4 for 60 min at 37° C. in the presence of 10 μM hydralazine hydrochloride (aldehyde oxidases inhibitor).
The chemical stability of the test item was checked in parallel by incubating the test item in single at the concentration of 1 μM in Dulbecco's buffer, pH 7.4 for 60 min at 37° C. (negative control).
The intrinsic clearance (CLint) was calculated using the half-life approach. Half-life and CLint were determined from the concentration (area counts) remaining at the different sampling points using the LC-MS/MS method. By plotting the natural logarithmic area of the compound remaining against the time, the slope was calculated by linear regression analysis and converted into the half-life (t½) and CLint expressed as μL/min/mg protein according to the following formulae: […]

Sequence of Cdc7 (O00311 whole entry): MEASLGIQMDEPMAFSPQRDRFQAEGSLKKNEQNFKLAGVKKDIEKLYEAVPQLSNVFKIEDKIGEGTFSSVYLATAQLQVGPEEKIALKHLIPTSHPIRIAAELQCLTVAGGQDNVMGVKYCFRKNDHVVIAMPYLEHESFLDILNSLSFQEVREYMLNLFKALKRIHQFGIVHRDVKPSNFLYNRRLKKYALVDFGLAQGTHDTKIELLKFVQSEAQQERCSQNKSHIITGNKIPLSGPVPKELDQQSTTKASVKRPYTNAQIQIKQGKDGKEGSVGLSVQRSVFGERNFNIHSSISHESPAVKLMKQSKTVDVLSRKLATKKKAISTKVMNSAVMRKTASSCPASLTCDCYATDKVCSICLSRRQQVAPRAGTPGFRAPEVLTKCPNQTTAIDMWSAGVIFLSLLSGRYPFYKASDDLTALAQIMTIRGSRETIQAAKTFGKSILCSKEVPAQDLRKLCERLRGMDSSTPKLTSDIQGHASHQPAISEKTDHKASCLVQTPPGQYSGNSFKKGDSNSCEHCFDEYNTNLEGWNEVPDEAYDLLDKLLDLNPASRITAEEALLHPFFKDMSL
Sequence of Cdc7 (Q9UBU7 whole entry partner): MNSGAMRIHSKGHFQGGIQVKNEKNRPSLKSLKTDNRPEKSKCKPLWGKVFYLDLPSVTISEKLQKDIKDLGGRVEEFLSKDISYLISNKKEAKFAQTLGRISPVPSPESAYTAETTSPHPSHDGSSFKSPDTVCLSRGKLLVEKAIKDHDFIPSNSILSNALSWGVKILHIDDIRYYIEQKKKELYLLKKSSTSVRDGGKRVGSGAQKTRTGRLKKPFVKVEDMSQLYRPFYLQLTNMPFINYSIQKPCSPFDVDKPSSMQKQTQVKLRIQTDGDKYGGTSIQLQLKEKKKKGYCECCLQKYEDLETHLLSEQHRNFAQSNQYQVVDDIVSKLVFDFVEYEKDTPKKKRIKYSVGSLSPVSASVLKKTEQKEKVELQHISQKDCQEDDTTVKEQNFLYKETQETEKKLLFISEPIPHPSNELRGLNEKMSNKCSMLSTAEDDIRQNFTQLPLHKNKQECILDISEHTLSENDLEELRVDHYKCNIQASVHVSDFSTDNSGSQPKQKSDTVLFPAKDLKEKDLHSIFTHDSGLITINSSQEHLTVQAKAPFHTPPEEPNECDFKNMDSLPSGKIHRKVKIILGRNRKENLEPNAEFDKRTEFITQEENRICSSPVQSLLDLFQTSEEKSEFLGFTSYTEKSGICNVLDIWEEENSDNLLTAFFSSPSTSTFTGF

Row | Compound | IC50 (Cdc7) | further results
1 | COc1ccc(-c2[nH]c(-c3ccnc4[nH]ccc34)cc2C(N)=O)c(C(F)(F)F)c1 [comp 16, 2-[4-methoxy-2-(trifluoromethyl)phenyl]-5-(1H-pyrrolo[2,3-b]pyridin-4-yl)-1H-pyrrole-3-carboxamide] | 6 nM | 
2 | NC(=O)c1cc(-c2ccnc3[nH]ccc23)[nH]c1-c1ccc(OC(F)F)cc1Cl [comp 17, 2-[2-chloro-4-(difluoromethoxy)phenyl]-5-(1H-pyrrolo[2,3-b]pyridin-4-yl)-1H-pyrrole-3-carboxamide] | 1 nM | 
3 | NC(=O)c1cc(-c2ccnc3[nH]ccc23)[nH]c1-c1ccc(Cl)c(Cl)c1 [comp 18, 2-(3,4-dichlorophenyl)-5-(1H-pyrrolo[2,3-b]pyridin-4-yl)-1H-pyrrole-3-carboxamide] | 31 nM | 
4 | NC(=O)c1cc(-c2ccnc3[nH]ccc23)[nH]c1-c1ccc(F)c(F)c1 [comp 19, 2-(3,4-difluorophenyl)-5-(1H-pyrrolo[2,3-b]pyridin-4-yl)-1H-pyrrole-3-carboxamide] | 15 nM | 
5 | CCOc1cccc(-c2[nH]c(-c3ccnc4[nH]ccc34)cc2C(N)=O)c1F [comp 20, 2-(3-ethoxy-2-fluorophenyl)-5-(1H-pyrrolo[2,3-b]pyridin-4-yl)-1H-pyrrole-3-carboxamide] | 5 nM | 
6 | Cc1ccc(-c2[nH]c(-c3ccnc4[nH]ccc34)cc2C(N)=O)cc1[N+](=O)[O-] [comp 21, 2-(4-methyl-3-nitrophenyl)-5-(1H-pyrrolo[2,3-b]pyridin-4-yl)-1H-pyrrole-3-carboxamide] | 34 nM | 
7 | NC(=O)c1cc(-c2[nH]c(-c3ccnc4[nH]ccc34)cc2C(N)=O)ccc1F [comp 22, 2-(3-carbamoyl-4-fluorophenyl)-5-(1H-pyrrolo[2,3-b]pyridin-4-yl)-1H-pyrrole-3-carboxamide] | 27 nM | 
8 | Cc1ccc(-c2[nH]c(-c3ccnc4[nH]ccc34)cc2C(=O)NCCN(C)C)c(F)c1 [comp 24, N-[2-(dimethylamino)ethyl]-2-(2-fluoro-4-methylphenyl)-5-(1H-pyrrolo[2,3-b]pyridin-4-yl)-1H-pyrrole-3-carboxamide] | 741 nM | 
9 | Cc1ccc(-c2[nH]c(-c3ccnc4[nH]ccc34)cc2C(=O)N[C@H]2CCCC[C@H]2N)c(F)c1 [comp 26, N-[(1S,2R)-2-aminocyclohexyl]-2-(2-fluoro-4-methylphenyl)-5-(1H-pyrrolo[2,3-b]pyridin-4-yl)-1H-pyrrole-3-carboxamide] | 12 nM | 
10 | Cc1ccc(-c2[nH]c(-c3ccnc4[nH]ccc34)cc2C(=O)NCc2ccco2)c(F)c1 [comp 27, 2-(2-fluoro-4-methylphenyl)-N-(furan-2-ylmethyl)-5-(1H-pyrrolo[2,3-b]pyridin-4-yl)-1H-pyrrole-3-carboxamide] | 61 nM | 
11 | Cc1ccc(-c2[nH]c(-c3ccnc4[nH]ccc34)cc2C(=O)NCCF)c(F)c1 [comp 28, N-(fluoroethyl)-2-(2-fluoro-4-methylphenyl)-5-(1H-pyrrolo[2,3-b]pyridin-4-yl)-1H-pyrrole-3-carboxamide] | 67 nM | 
12 | Cc1ccc(-c2[nH]c(-c3ccnc4[nH]ccc34)cc2C(=O)NC2CCN(C)CC2)c(F)c1 [comp 30, 2-(2-fluoro-4-methylphenyl)-N-(1-methylpiperidin-4-yl)-5-(1H-pyrrolo[2,3-b]pyridin-4-yl)-1H-pyrrole-3-carboxamide] | 3130 nM | 
13 | NC(=O)c1cc(-c2ccnc3[nH]ccc23)[nH]c1-c1cccc2c1sc1ccccc12 [comp 31, 2-(dibenzo[b,d]thiophen-4-yl)-5-(1H-pyrrolo[2,3-b]pyridin-4-yl)-1H-pyrrole-3-carboxamide] | 759 nM | 
14 | Cc1ccc(-c2[nH]c(-c3ccnc4[nH]ccc34)cc2C(N)=O)c2ccccc12 [comp 32, 2-(4-methylnaphthalen-1-yl)-5-(1H-pyrrolo[2,3-b]pyridin-4-yl)-1H-pyrrole-3-carboxamide] | 17 nM | 
15 | NC(=O)c1cc(-c2ccnc3[nH]ccc23)[nH]c1-c1cccc(F)c1 [comp 33, 2-(3-fluorophenyl)-5-(1H-pyrrolo[2,3-b]pyridin-4-yl)-1H-pyrrole-3-carboxamide] | 14 nM | 
16 | NC(=O)c1cc(-c2ccnc3[nH]ccc23)[nH]c1-c1ccc(OC(F)(F)F)cc1 [comp 34, 5-(1H-pyrrolo[2,3-b]pyridin-4-yl)-2-[4-(trifluoromethoxy)phenyl]-1H-pyrrole-3-carboxamide] | 42 nM | 
17 | NC(=O)c1cc(-c2ccnc3[nH]ccc23)[nH]c1-c1csc2ccccc12 [comp 35, 2-(1-benzothiophen-3-yl)-5-(1H-pyrrolo[2,3-b]pyridin-4-yl)-1H-pyrrole-3-carboxamide] | 7 nM | 
18 | NC(=O)c1cc(-c2ccnc3[nH]ccc23)[nH]c1-c1ccc2c(c1)OCCO2 [comp 36, 2-(2,3-dihydro-1,4-benzodioxin-6-yl)-5-(1H-pyrrolo[2,3-b]pyridin-4-yl)-1H-pyrrole-3-carboxamide] | 10 nM | 
19 | Cc1cc(F)ccc1-c1[nH]c(-c2ccnc3[nH]ccc23)cc1C(N)=O [comp 37, 2-(4-fluoro-2-methylphenyl)-5-(1H-pyrrolo[2,3-b]pyridin-4-yl)-1H-pyrrole-3-carboxamide] | 2 nM | 
20 | Cc1ccc(-c2[nH]c(-c3ccnc4[nH]ccc34)c(I)c2C(N)=O)c(F)c1 [comp 38, 2-(2-fluoro-4-methylphenyl)-4-iodo-5-(1H-pyrrolo[2,3-b]pyridin-4-yl)-1H-pyrrole-3-carboxamide] | 101 nM | 
21 | Cc1ccc(-c2[nH]c(-c3ccnc4[nH]ccc34)c(Br)c2C(N)=O)c(F)c1 [comp 39, 2-(2-fluoro-4-methylphenyl)-4-bromo-5-(1H-pyrrolo[2,3-b]pyridin-4-yl)-1H-pyrrole-3-carboxamide] | 159 nM | 
22 | CCc1c(-c2ccnc3[nH]ccc23)[nH]c(-c2ccc(C)cc2F)c1C(N)=O [comp 40, 4-ethyl-2-(2-fluoro-4-methylphenyl)-5-(1H-pyrrolo[2,3-b]pyridin-4-yl)-1H-pyrrole-3-carboxamide] | 717 nM | 
23 | NC(=O)c1cc(-c2csc(N)n2)[nH]c1-c1ccc(Cl)cc1Cl [compound 45, 5-(2-amino-1,3-thiazol-4-yl)-2-(2,4-dichlorophenyl)-1H-pyrrole-3-carboxamide] |  | HLC % remaining (1 h incub.) [1]: 98%; IntCl (Intrinsic Clearance) [1]: 2.9 μL/min/mg protein; HLC T½ min [1]: 3.98 h
24 | NC(=O)c1cc(-c2ccnc3[nH]ncc23)[nH]c1-c1ccc(Cl)cc1Cl [compound 47, 2-(2,4-dichlorophenyl)-5-(1H-pyrazolo[3,4-b]pyridin-4-yl)-1H-pyrrole-3-carboxamide] | 4 nM | 
25 | Cc1ccc(-c2[nH]c(-c3c[nH]nc3C)cc2C(N)=O)c(F)c1 [compound 52, 2-(2-fluoro-4-methylphenyl)-5-(3-methyl-1H-pyrazol-4-yl)-1H-pyrrole-3-carboxamide] |  | HLC % remaining (1 h incub.) [1]: 100%; IntCl (Intrinsic Clearance) [1]: 2.9 μL/min/mg protein; HLC T½ min [1]: 3.98 h
26 | Cc1ccc(-c2[nH]c(-c3ccnc4[nH]ccc34)cc2C(N)=O)c(F)c1 [compound 53, 2-(2-fluoro-4-methylphenyl)-5-(1H-pyrrolo[2,3-b]pyridin-4-yl)-1H-pyrrole-3-carboxamide] |  | HLC % remaining (1 h incub.) [1]: 100%; IntCl (Intrinsic Clearance) [1]: 2.9 μL/min/mg protein; HLC T½ min [1]: 3.98 h
27 | NC(=O)c1cc(-c2ccnc3[nH]ccc23)n(CCO)c1-c1ccc(Cl)cc1Cl [compound 54, 2-(2,4-dichlorophenyl)-1-(2-hydroxyethyl)-5-(1H-pyrrolo[2,3-b]pyridin-4-yl)-1H-pyrrole-3-carboxamide] | 418 nM | 
